Laboratory results published in ChEMBL document CHEMBL1777769, “Synthesis and characterisation of a novel tubulin-directed DO3A-colchicine conjugate with potential theranostic features” (Bioorg Med Chem Lett, 2011).
Active and inactive are the calls of the source. No cut-off for these calls is given here.

What was measured:
Format in all cases: functional, cell-based
OVCAR-3 [1] = assay: Cytotoxicity against human OVCAR3 cells assessed as change in cell shape after 24 hrs by trypan blue exclusion assay
OVCAR-3 [2] = assay: Cytotoxicity against human OVCAR3 cells assessed as cell death after 24 hrs by trypan blue exclusion assay
OVCAR-3 [3] = assay: Cytotoxicity against human OVCAR3 cells assessed as reduction in viable cells after 24 hrs by trypan blue exclusion assay

| Compound | Activity (OVCAR-3 [1]) | Activity (OVCAR-3 [2]) | Activity (OVCAR-3 [3]) |
| --- | --- | --- | --- |
| COc1cc2c(c(OC)c1OC)-c1ccc(OC)c(=O)cc1[C@@H](NC(=O)CN1CCN(CC(=O)O)CCN(CC(=O)O)CCN(CC(=O)O)CC1)CC2 | Active | Active |  |
| COc1cc2c(c(OC)c1OC)-c1ccc(OC)c(=O)cc1[C@@H](NC(C)=O)CC2 | Active | Active | Active |
